Data as given in PubChem BioAssay AID623948 (Vanderbilt Specialized Chemistry Center, 2012).
The source made the active and inactive calls.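 The calls were made as follows: active = compound shifting the acetylcholine potency curve by more than threefold; inactive = the rest.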

Target: Muscarinic acetylcholine receptor M4 (Homo sapiens) (UniProt P08173)
Assay: human M4 positive allosteric modulation fold shift – CHO cells, Gqi5 chimera, calcium mobilization, mechanism study, SAR follow-up (AID 623948)
Settings: CHO hM4/Gqi5 calcium mobilization; for outcome / fold shift: ACh fold shift; for fold shift / % ACh max: at 30 µM, stronger effect = higher value; for % ACh max: measured here: ACh max response with compound

Muscarinic acetylcholine receptor M4 (Homo sapiens), sequence (P08173 whole entry, looked up): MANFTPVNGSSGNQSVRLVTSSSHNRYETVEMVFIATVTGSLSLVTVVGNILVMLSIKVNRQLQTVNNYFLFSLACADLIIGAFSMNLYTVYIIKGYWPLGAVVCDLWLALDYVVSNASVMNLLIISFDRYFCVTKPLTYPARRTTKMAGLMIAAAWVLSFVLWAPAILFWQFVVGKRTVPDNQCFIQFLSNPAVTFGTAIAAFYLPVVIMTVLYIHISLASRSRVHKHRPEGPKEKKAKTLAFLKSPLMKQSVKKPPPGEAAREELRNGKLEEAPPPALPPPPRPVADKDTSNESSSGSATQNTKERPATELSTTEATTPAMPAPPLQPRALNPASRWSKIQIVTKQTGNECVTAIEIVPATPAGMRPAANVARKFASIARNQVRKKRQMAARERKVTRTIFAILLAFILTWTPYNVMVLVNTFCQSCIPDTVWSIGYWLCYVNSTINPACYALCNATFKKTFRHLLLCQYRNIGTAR

outcome | fold shift | % ACh max [%] | Structure (SMILES)
active; potentiator | – | – | Cc1nc2sc(C(=O)NCc3ccccc3)c(N)c2c(C)c1Cl
– | 3.63 | 112 | COc1ccc(C)c2sc(NC(=O)c3ccco3)nc12
active; potentiator | – | – | Cc1nc2sc(C(=O)NCc3cccc(F)c3F)c(N)c2c(C)c1Cl
active; potentiator | – | – | Cc1nc2sc(C(=O)NC3CC3)c(N)c2c(C)c1Cl
active; potentiator | – | – | Cc1nc2sc(C(=O)NC3CCOCC3)c(N)c2c(C)c1Cl
active; potentiator | – | – | Cc1nc2sc(C(=O)NCc3cccnc3)c(N)c2c(C)c1Cl
active; potentiator | – | – | Cc1nc2sc(C(=O)NCCc3ccncc3)c(N)c2c(C)c1Cl
– | 2.93 | 105 | COc1ccc(C)c2sc(NC(=O)c3cccnc3)nc12
active; potentiator | – | – | Cc1nc2sc(C(=O)NCc3ccncc3)c(N)c2c(C)c1Cl
– | 14.9 | 110 | COc1ccc(C)c2sc(NC(=O)c3ccncc3)nc12
active; potentiator | – | – | Cc1nc2sc(C(=O)NCc3ccncn3)c(N)c2c(C)c1Cl
– | 3.65 | 110 | COc1ccc(C)c2sc(NC(=O)c3cnccn3)nc12
active; potentiator | – | – | Cc1nc2sc(C(=O)NCc3ccc4c(c3)OCO4)c(N)c2c(C)c1Cl
– | 5.98 | 106 | COc1ccc(C)c2sc(NC(=O)C3=COCCO3)nc12
active; potentiator | – | – | Cc1nc2sc(C(=O)NCc3nccs3)c(N)c2c(C)c1Cl
